This is an account of results in patent US10906897B2, “Microbiocidal heterobicyclic derivatives” (priority 2015, dated 2021).

In one data set the test system is Gaeumannomyces graminis. Put plainly: Gaeumannomyces graminis / liquid culture (Take-all of cereals). The format is cell-based. To be noted: growth inhibition photometrically 4-5 days after application, compared to untreated control.
Data set [1] relates to Monographella nivalis (Microdochium nivale). As to the kind of experiment: Monographella nivalis (Microdochium nivale) / liquid culture (foot rot cereals). The format is cell-based. To be noted: 96 h, growth inhibition photometrically 4-5 days after application, compared to untreated control.
In data set [2] the test system is Glomerella lagenarium (Colletotrichum lagenarium). Put plainly: Glomerella lagenarium (Colletotrichum lagenarium) / liquid culture (Anthracnose). To be noted: Colletotrichum orbiculare, growth inhibition photometrically 3-4 days after application, compared to untreated control. In kind it is cell-based.
Another data set has as its system Sclerotinia sclerotiorum. As to the kind of experiment: Sclerotinia sclerotiorum / liquid culture (cottony rot). To be noted: read-out: control of Sclerotinia sclerotiorum.
For data set [3], the system named is Botryotinia fuckeliana (Botrytis cinerea). As to the kind of experiment: Botryotinia fuckeliana (Botrytis cinerea) / liquid culture (Gray mould). The format is cell-based. To be noted: growth inhibition photometrically 3-4 days after application, compared to untreated control.
The subject of a further data set is Fusarium culmorum. Put plainly: microbe, parasite or virus in culture. To be noted: read-out: control of Fusarium culmorum. The format is cell-based.
For data set [4], the system named is Magnaporthe grisea (Pyricularia oryzae). As to the kind of experiment: microbe, parasite or virus in culture. The format is cell-based. To be noted: read-out: control of Magnaporthe grisea.
Data set [5] shares this test system. As to the kind of experiment: whole plant or invertebrate. In kind it is in vivo. To be noted: foliar, read-out: control of Magnaporthe grisea.
In data set [6] the test system is Mycosphaerella graminicola (Septoria tritici). As to the kind of experiment: Mycosphaerella graminicola (Septoria tritici) / liquid culture (Septoria blotch). In kind it is cell-based. To be noted: Zymoseptoria tritici, growth inhibition photometrically 4-5 days after application, compared to untreated control.

Procedure for Sclerotinia sclerotiorum: Sclerotinia sclerotiorum/Liquid Culture (Cottony Rot)
Mycelia fragments of a newly grown liquid culture of the fungus are directly mixed into 5 nutrient broth (Vogels broth). After placing a (DMSO) solution of test compound into a microtiter plate (96-well format) the nutrient broth containing the fungal material is added. The test plates are incubated at 24° C. and the inhibition of growth is determined photometrically 3-4 days after application.

For orientation: melting point means the temperature of the solid-liquid transition. In turn, `CC1(C)N=C(c2cnn3cc(Br)ccc23)c2ccccc2C1(F)F` [Compound E-81, 1-(6-bromopyrazolo[1,5-a]pyridin-3-yl)-4,4-difluoro-3,3-dimethyl-isoquinoline] displayed a melting point of 127 to 129 °C. This molecule also yielded an inhibition of growth at 20 ppm in the data set on Gaeumannomyces graminis of at least 80%. This molecule gave an inhibition of growth at 20 ppm in data set [1] of at least 80%. This molecule also gave an inhibition of growth at 20 ppm in data set [2] of at least 80%. Further, the inhibition of growth at 20 ppm with Sclerotinia sclerotiorum is at least 80%. This molecule registered an inhibition of growth at 20 ppm in data set [3] of at least 80%. For the same molecule, in the data set with Fusarium culmorum, the inhibition of growth at 20 ppm is at least 80%. For the same molecule, in data set [4], the inhibition of growth at 60 ppm is at least 80%. Besides, the pest or weed control at 200 ppm in [5] is at least 50%. For the same molecule, in [6], the inhibition of growth at 20 ppm was at least 80%.

For `CC1(C)N=C(c2cnn3cc(Br)ccc23)c2ccccc2C1=O` [Compound E-82, 1-(6-bromopyrazolo[1,5-a]pyridin-3-yl)-3,3-dimethyl-isoquinolin-4-one], the melting point was in the range of 147 to 149 °C. The inhibition of growth at 20 ppm in the data set on Gaeumannomyces graminis was at least 80%. The same molecule returned an inhibition of growth at 20 ppm in [1] of at least 80%. Also, the inhibition of growth at 20 ppm in [2] was at least 80%. In the data set on Sclerotinia sclerotiorum, the inhibition of growth at 20 ppm is at least 80%. Besides, in data set [3], the inhibition of growth at 20 ppm is at least 80%. Also, the inhibition of growth at 20 ppm with Fusarium culmorum was at least 80%. In data set [4], the inhibition of growth at 60 ppm is at least 80%. The molecule further came in with an inhibition of growth at 20 ppm in data set [6] of at least 80%.

For the molecule `Cc1ccc2c(C3=NC(C)(C)C(F)(F)c4ccccc43)cnn2c1` [Compound E-83, 4,4-difluoro-3,3-dimethyl-1-(6-methylpyrazolo[1,5-a]pyridin-3-yl)isoquinoline], the melting point lay within 105 to 107 °C. Further, the inhibition of growth at 20 ppm with Gaeumannomyces graminis is at least 80%. In data set [1], this molecule registered an inhibition of growth at 20 ppm of at least 80%. The same molecule returned an inhibition of growth at 20 ppm in [2] of at least 80%. The inhibition of growth at 20 ppm in the data set on Sclerotinia sclerotiorum was at least 80%. This molecule had an inhibition of growth at 20 ppm in data set [3] of at least 80%. For the same molecule, in the data set on Fusarium culmorum, the inhibition of growth at 20 ppm was at least 80%. Moreover, the inhibition of growth at 60 ppm in [4] was at least 80%. Further, the pest or weed control at 200 ppm in data set [5] was at least 50%. Moreover, the inhibition of growth at 20 ppm in [6] was at least 80%.

For `CCc1ccc2c(C3=NC(C)(C)C(F)(F)c4ccccc43)cnn2c1` [Compound E-86, 1-(6-ethylpyrazolo[1,5-a]pyridin-3-yl)-4,4-difluoro-3,3-dimethyl-isoquinoline], the inhibition of growth at 20 ppm (with Gaeumannomyces graminis; in [2]; with Sclerotinia sclerotiorum; in data set [3]; in the data set on Fusarium culmorum; in data set [6]) was at least 80% throughout. Besides, in data set [4], the inhibition of growth at 60 ppm was at least 80%. The pest or weed control at 200 ppm in [5] is at least 50%.

With `CC1(C)N=C(c2cnn3cc(Cl)ccc23)c2ccccc2C1(F)F` [Compound E-87, 1-(6-chloropyrazolo[1,5-a]pyridin-3-yl)-4,4-difluoro-3,3-dimethyl-isoquinoline], the melting point fell in the range of 113 to 118 °C. This molecule displayed an inhibition of growth at 20 ppm in the data set on Gaeumannomyces graminis of at least 80%. The molecule also yielded an inhibition of growth at 20 ppm in data set [2] of at least 80%. In addition, the inhibition of growth at 20 ppm in the data set on Sclerotinia sclerotiorum was at least 80%. Also, the inhibition of growth at 20 ppm in data set [3] is at least 80%. The inhibition of growth at 20 ppm in the data set on Fusarium culmorum was at least 80%. For the same molecule, the inhibition of growth at 60 ppm in data set [4] is at least 80%. For the same molecule, in data set [5], the pest or weed control at 200 ppm was at least 50%. Moreover, the inhibition of growth at 20 ppm in data set [6] is at least 80%.

With `Cc1c(F)ccc2c(C3=NC(C)(C)C(F)(F)c4ccccc43)cnn12` [Compound E-88, 4,4-difluoro-1-(6-fluoro-7-methyl-pyrazolo[1,5-a]pyridin-3-yl)-3,3-dimethyl-isoquinoline], the melting point lay within 115 to 118 °C. Also, in the data set on Gaeumannomyces graminis, the inhibition of growth at 20 ppm is at least 80%. Further, in data set [1], the inhibition of growth at 20 ppm was at least 80%. Besides, the inhibition of growth at 20 ppm in data set [2] is at least 80%. The inhibition of growth at 20 ppm in the data set on Sclerotinia sclerotiorum is at least 80%. Moreover, the inhibition of growth at 20 ppm in [3] was at least 80%. Also, in the data set with Fusarium culmorum, the inhibition of growth at 20 ppm is at least 80%. Further, the inhibition of growth at 60 ppm in [4] was at least 80%. Further, the pest or weed control at 200 ppm in [5] was at least 50%. Further, in [6], the inhibition of growth at 20 ppm is at least 80%.

As to `CC1(C)N=C(c2cnn3c(Cl)cccc23)c2ccccc2C1(F)F` [Compound E-93, 1-(7-chloropyrazolo[1,5-a]pyridin-3-yl)-4,4-difluoro-3,3-dimethyl-isoquinoline], the melting point lay within 129 to 132 °C. This molecule yielded an inhibition of growth at 20 ppm in data set [1] of at least 80%. The molecule also displayed an inhibition of growth at 20 ppm in [2] of at least 80%. Besides, in the data set with Sclerotinia sclerotiorum, the inhibition of growth at 20 ppm is at least 80%. Further, the inhibition of growth at 20 ppm in data set [3] was at least 80%. For the same molecule, the inhibition of growth at 20 ppm in the data set with Fusarium culmorum was at least 80%. Moreover, the inhibition of growth at 60 ppm in data set [4] was at least 80%. In addition, in data set [5], the pest or weed control at 200 ppm is at least 50%. Besides, the inhibition of growth at 20 ppm in data set [6] was at least 80%.
